Usually pIC50 stands for the negative decadic logarithm of the IC50, by convention in mol/L.

The text below walks through data of patent US20260102383A1, “LPAR1 Inhibitors” (AbbVie Inc., priority 2024, published 2026).

pIC50: −log10 of the molar value.

The target of the test is T1, human LPAR1 (Homo sapiens, UniProt Q92633).
T1 construct: host or cells: TangoEDG2-bla U2OS cells
Description: Arrestin assay (Arrestin Reporter EDG2-bla U2OS), inhibition of LPA-stimulated signal. Format: cell-based. The conditions noted are these: TangoEDG2-bla U2OS cells expressing human LPAR1; 0.25 μM LPA; read-out: Arrestin Reporter EDG2-bla U2OS Human Merged IC50. The procedure, abridged:
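TangoEDG2-bla U2OS cells (1×10^4/well, plated 18-20 h) were preincubated 1 h at 37 °C with compound (12-point, 3-fold, 10 μM to 0.00006 μM), then stimulated 3 h with 0.25 μM LPA final. LiveBLAzer FRET B/G 460/530 nm emission ratio gave % inhibition; IC50 from 4-parameter variable-slope fit.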

T1 sequence (Q92633 whole entry): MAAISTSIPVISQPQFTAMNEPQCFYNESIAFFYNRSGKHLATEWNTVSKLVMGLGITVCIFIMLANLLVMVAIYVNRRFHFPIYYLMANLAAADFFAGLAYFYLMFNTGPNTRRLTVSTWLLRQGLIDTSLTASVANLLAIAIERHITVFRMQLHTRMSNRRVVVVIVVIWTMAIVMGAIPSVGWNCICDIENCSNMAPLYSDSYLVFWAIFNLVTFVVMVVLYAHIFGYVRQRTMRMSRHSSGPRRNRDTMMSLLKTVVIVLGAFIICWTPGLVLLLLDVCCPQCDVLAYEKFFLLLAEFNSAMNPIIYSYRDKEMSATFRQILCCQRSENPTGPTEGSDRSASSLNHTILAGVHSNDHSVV

For `COCC[C@@H](CN1CCC(C(=O)Nc2ccc(Cl)cc2OC(F)F)(n2ncc3c2C(C)(C)OC3)CC1)C(=O)O` [Compound 210, (2S)-2-[[4-[[4-chloro-2-(difluoromethoxy)phenyl]carbamoyl]-4-(6,6-dimethyl-4H-furo[3,4-c]pyrazol-1-yl)-1-piperidyl]methyl]-4-methoxy-butanoic acid], the pIC50 was 6.91. Under `COC[C@@H](CN1CCC(C(=O)Nc2ccc(Cl)cc2OC(F)F)(n2ncc3c2C(C)(C)OC3)CC1)C(=O)O` [Compound 211, (2R)-2-[[4-[[4-chloro-2-(difluoromethoxy)phenyl]carbamoyl]-4-(6,6-dimethyl-4H-furo[3,4-c]pyrazol-1-yl)-1-piperidyl]methyl]-3-methoxy-propanoic acid] stands 7.06; under `CC(C)c1c(F)cnn1C1(C(=O)Nc2ccc(Cl)cc2OC(F)F)CCN([C@H]2C[C@](C)(C(=O)O)C2)CC1` [Compound 212, (1r,3r)-3-[4-[[4-chloro-2-(difluoromethoxy)phenyl]carbamoyl]-4-(4-fluoro-5-isopropyl-pyrazol-1-yl)-1-piperidyl]-1-methyl-cyclobutanecarboxylic acid], 7.33; under `CC(C)c1c(F)cnn1C1(C(=O)Nc2ccc(Cl)cc2OC(F)F)CCN(C[C@H](CO)C(=O)O)CC1` [Compound 213, (2R)-2-[[4-[[4-chloro-2-(difluoromethoxy)phenyl]carbamoyl]-4-(4-fluoro-5-isopropyl-pyrazol-1-yl)-1-piperidyl]methyl]-3-hydroxy-propanoic acid], 7.65. `CC(C)c1c(F)cnn1C1(C(=O)Nc2ccc(Cl)cc2OC(F)F)CCN([C@H]2CO[C@@H](C(=O)O)C2)CC1` [Compound 214, (2R,4R)-4-[4-[[4-chloro-2-(difluoromethoxy)phenyl]carbamoyl]-4-(4-fluoro-5-isopropyl-pyrazol-1-yl)-1-piperidyl]tetrahydrofuran-2-carboxylic acid]: the pIC50 is 7.12.

As to `CC(C)c1ccnn1C1(C(=O)Nc2ccc(Cl)cc2OC(F)F)CCN(C[C@@H](C(=O)O)C2COCCOC2)CC1` [Compound 215, (2S)-3-[4-[[4-chloro-2-(difluoromethoxy)phenyl]carbamoyl]-4-(5-isopropylpyrazol-1-yl)-1-piperidyl]-2-(1,4-dioxepan-6-yl)propanoic acid], the pIC50 was 7.73. Under `CC(C)c1ccnn1C1(C(=O)Nc2ccc(Cl)cc2OC(F)F)CCN(C[C@H](C(=O)O)C2COCCOC2)CC1` [Compound 216, (2R)-3-[4-[[4-chloro-2-(difluoromethoxy)phenyl]carbamoyl]-4-(5-isopropylpyrazol-1-yl)-1-piperidyl]-2-(1,4-dioxepan-6-yl)propanoic acid] stands 7.55.

For `CC(C)c1ccnn1C1(C(=O)Nc2ccc(Cl)cc2OC(F)F)CCN([C@H]2C[C@@](C(=O)O)(C(F)F)C2)CC1` [Compound 220, (1s,3s)-3-[4-[[4-chloro-2-(difluoromethoxy)phenyl]carbamoyl]-4-(5-isopropylpyrazol-1-yl)-1-piperidyl]-1-(difluoromethyl) cyclobutanccarboxylic acid], the pIC50 is 7.15. Under `CC(C)c1ccnn1C1(C(=O)Nc2ccc(Cl)cc2OC(F)F)CCN([C@H]2C[C@](C(=O)O)(C(F)F)C2)CC1` [Compound 221] stands 7.56; under `CC(C)c1ccnn1C1(C(=O)Nc2ccc(Cl)cc2OC(F)F)CCN(C[C@@H](C(=O)O)[C@@H](C)O)CC1` [Compound 222, (2R,3R)-2-[[4-[[4-chloro-2-(difluoromethoxy)phenyl]carbamoyl]-4-(5-isopropylpyrazol-1-yl)-1-piperidyl]methyl]-3-hydroxy-butanoic acid], 7.32; under `CC(C)c1ccnn1C1(C(=O)Nc2ccc(Cl)cc2OC(F)F)CCN(C[C@@H](C(=O)O)[C@H](C)O)CC1` [Compound 223, (2R,3S)-2-[[4-[[4-chloro-2-(difluoromethoxy)phenyl]carbamoyl]-4-(5-isopropylpyrazol-1-yl)-1-piperidyl]methyl]-3-hydroxy-butanoic acid], 7.23. As for `COc1cnn([C@H](CN2CCC(C(=O)Nc3ccc(Cl)cc3OC(F)F)(n3nccc3C(C)C)CC2)C(=O)O)c1` [Compound 224, (2R)-3-[4-[[4-chloro-2-(difluoromethoxy)phenyl]carbamoyl]-4-(5-isopropylpyrazol-1-yl)-1-piperidyl]-2-(4-methoxypyrazol-1-yl)propanoic acid], the figure is 7.51; as for `COc1cnn([C@@H](CN2CCC(C(=O)Nc3ccc(Cl)cc3OC(F)F)(n3nccc3C(C)C)CC2)C(=O)O)c1` [Compound 225, (2S)-3-[4-[[4-chloro-2-(difluoromethoxy)phenyl]carbamoyl]-4-(5-isopropylpyrazol-1-yl)-1-piperidyl]-2-(4-methoxypyrazol-1-yl)propanoic acid], 7.51. With `CO[C@H]1C[C@@H]([C@H](CN2CCC(C(=O)Nc3ccc(Cl)cc3OC(F)F)(n3nccc3C(C)C)CC2)C(=O)O)C1` [Compound 226], the pIC50 was 7.40. Under `CO[C@H]1C[C@@H]([C@@H](CN2CCC(C(=O)Nc3ccc(Cl)cc3OC(F)F)(n3nccc3C(C)C)CC2)C(=O)O)C1` [Compound 227, (2S)-3-[4-[[4-chloro-2-(difluoromethoxy)phenyl]carbamoyl]-4-(5-isopropylpyrazol-1-yl)-1-piperidyl]-2-((1s,3R)-3-methoxycyclobutyl) propanoic acid] stands 7.42. Take `CCOC[C@H](CN1CCC(C(=O)Nc2ccc(Cl)cc2OC(F)F)(n2nccc2C(C)C)CC1)C(=O)O` [Compound 228, (2S)-2-[[4-[[4-chloro-2-(difluoromethoxy)phenyl]carbamoyl]-4-(5-isopropylpyrazol-1-yl)-1-piperidyl]methyl]-3-ethoxy-propanoic acid]: the pIC50 was 7.78. Take `CO[C@H]1C[C@H]([C@H](CN2CCC(C(=O)Nc3ccc(Cl)cc3OC(F)F)(n3nccc3C(C)C)CC2)C(=O)O)C1` [Compound 229, (2R)-3-[4-[[4-chloro-2-(difluoromethoxy)phenyl]carbamoyl]-4-(5-isopropylpyrazol-1-yl)-1-piperidyl]-2-((1r,3R)-3-methoxycyclobutyl) propanoic acid]: the pIC50 was 7.53. Under `CO[C@H]1C[C@H]([C@@H](CN2CCC(C(=O)Nc3ccc(Cl)cc3OC(F)F)(n3nccc3C(C)C)CC2)C(=O)O)C1` [Compound 230, (2S)-3-[4-[[4-chloro-2-(difluoromethoxy)phenyl]carbamoyl]-4-(5-isopropylpyrazol-1-yl)-1-piperidyl]-2-((1r,3S)-3-methoxycyclobutyl) propanoic acid] stands 7.59. In the case of `CCOC[C@@H](CN1CCC(C(=O)Nc2ccc(Cl)cc2OC(F)F)(n2nccc2C(C)C)CC1)C(=O)O` [Compound 231, (2R)-2-[[4-[[4-chloro-2-(difluoromethoxy)phenyl]carbamoyl]-4-(5-isopropylpyrazol-1-yl)-1-piperidyl]methyl]-3-ethoxy-propanoic acid], the pIC50 is 7.85. Consider `CC(C)c1ccnn1C1(C(=O)Nc2ccc(Cl)cc2OC(F)F)CCN(CC(COCC(F)(F)F)C(=O)O)CC1` (centres unmarked) [Compound 232, 2-[[4-[[4-chloro-2-(difluoromethoxy)phenyl]carbamoyl]-4-(5-isopropylpyrazol-1-yl)-1-piperidyl]methyl]-3-(2.2,2-trifluoroethoxy)propanoic acid], for which the pIC50 was 8.08.

`CC(C)c1ccnn1C1(C(=O)Nc2ccc(Cl)cc2OC(F)F)CCN(C[C@@H](COCC(F)(F)F)C(=O)O)CC1` [Compound 233, (2S)-2-[[4-[[4-chloro-2-(difluoromethoxy)phenyl]carbamoyl]-4-(5-isopropylpyrazol-1-yl)-1-piperidyl]methyl]-3-(2,2,2-trifluoroethoxy)propanoic acid]: the pIC50 is 8.05. Under `CC(C)c1ccnn1C1(C(=O)Nc2ccc(Cl)cc2OC(F)F)CCN(C[C@H](COCC(F)(F)F)C(=O)O)CC1` [Compound 234, (2R)-2-[[4-[[4-chloro-2-(difluoromethoxy)phenyl]carbamoyl]-4-(5-isopropylpyrazol-1-yl)-1-piperidyl]methyl]-3-(2,2,2-trifluoroethoxy)propanoic acid] stands 8.02; under `CC(C)c1ccnn1C1(C(=O)Nc2ccc(Cl)cc2OC(F)F)CCN(C[C@@](C)(O)C(=O)O)CC1` [Compound 235, (2R)-3-[4-[[4-chloro-2-(difluoromethoxy)phenyl]carbamoyl]-4-(5-isopropylpyrazol-1-yl)-1-piperidyl]-2-hydroxy-2-methyl-propanoic acid], 7.68.

As to `CC(C)c1ccnn1C1(C(=O)Nc2ccc(Cl)cc2OC(F)F)CCN(C[C@](C)(O)C(=O)O)CC1` [Compound 236, (2S)-3-[4-[[4-chloro-2-(difluoromethoxy)phenyl]carbamoyl]-4-(5-isopropylpyrazol-1-yl)-1-piperidyl]-2-hydroxy-2-methyl-propanoic acid], the pIC50 was 7.19. Under `CC(C)c1ccnn1C1(C(=O)Nc2ccc(Cl)cc2OC(F)F)CCN(CC(CN2CCOC(F)(F)C2)C(=O)O)CC1` (centres unmarked) [Compound 237, 2-[[4-[[4-chloro-2-(difluoromethoxy)phenyl]carbamoyl]-4-(5-isopropylpyrazol-1-yl)-1-piperidyl]methyl]-3-(2,2-difluoromorpholin-4-yl)propanoic acid] stands 7.78; under `CC(C)c1ccnn1C1(C(=O)Nc2ccc(Cl)cc2OC(F)F)CCN(C[C@@H](CN2CCOCC2)C(=O)O)CC1` [Compound 238, (2S)-2-[[4-[[4-chloro-2-(difluoromethoxy)phenyl]carbamoyl]-4-(5-isopropylpyrazol-1-yl)-1-piperidyl]methyl]-3-morpholino-propanoic acic], 6.90.
